Read-outs that look alike come from different tables or passages of the source.
Assays:
HsChit1 = molecular target: T1, HsChit1 (Homo sapiens, UniProt Q13231); assay: Chitinase inhibition assay and Ki determination (MU-β-(GlcNAc)2 substrate, Dixon plot), HsChit1; assay type: biochemical; conditions: three substrate concentrations
T1 construct: made in house; host or cells: Pichia pastoris GS115
Method: SmChiA was expressed in Escherichia coli BL21(DE3), HsChit1 and OfChi-h were overexpressed in Pichia pastoris GS115. The Escherichia coli BL21(DE3) strain was purchased from TaKaRa Biotech (Dalian, […]) while the Pichia pastoris GS115 strain was obtained from Invitrogen (Thermo Fisher Scientific, CA, USA), both of which were cultured and handled according to the protocols provided by suppliers. All chitinases were purified using immobilised metal ion affinity chromatography as previously described. Briefly, solid ammonium sulphate was slowly added to the culture supernatant to achieve 75% saturation. After incubation at 4 °C for 24 h, the precipitated proteins were collected by centrifugation at 12,000 × g for 30 min at 4 °C. […] The expressed proteins were quantified using a BCA protein assay kit (TaKaRa Biotech, China). And their purities were determined by SDS-PAGE and found to be >95% in all cases.
Chitinase activities for SmChiA, HsChit1 and OfChi-h were determined using 4-methylumbelliferyl-N, N′-diacetyl-β-D-chitobioside (MU-β-(GlcNAc)2) (purchased from Sigma) as a substrate. […] After incubation at 30 °C for 20 min, 0.5 M sodium carbonate was added to the reaction mixture, and the fluorescence produced by the released 4-MU was quantified with a Varioskan Flash microplate reader (Thermo Fisher Scientific) using excitation and emission wavelengths of 360 and 450 nm, respectively. […]

OfChi-h [1] = molecular target: T2, OfChi-h (Ostrinia furnacalis, UniProt Q4AE59); assay: Chitinase inhibition assay and Ki determination (MU-β-(GlcNAc)2 substrate, Dixon plot), OfChi-h; assay type: biochemical; conditions: for inhibition at 10 µM: 10 μM inhibitor, 10 nM enzyme, 4 μM MU-β-(GlcNAc)2, pH 6.0, 30 °C, 20 min; for Ki: Dixon plot, substrate 2–8 μM
T2 construct: made in house; host or cells: Pichia pastoris GS115
Method: (§1) SmChiA was expressed in Escherichia coli BL21(DE3), HsChit1 and OfChi-h were overexpressed in Pichia pastoris GS115. The Escherichia coli BL21(DE3) strain was purchased from TaKaRa Biotech (Dalian, […]) while the Pichia pastoris GS115 strain was obtained from Invitrogen (Thermo Fisher Scientific, CA, USA), both of which were cultured and handled according to the protocols provided by suppliers. All chitinases were purified using immobilised metal ion affinity chromatography as previously described. Briefly, solid ammonium sulphate was slowly added to the culture supernatant to achieve 75% saturation. After incubation at 4 °C for 24 h, the precipitated proteins were collected by centrifugation at 12,000 × g for 30 min at 4 °C. The pellet was resuspended thoroughly in buffer A (20 mM sodium phosphate, 0.5 M sodium chloride, pH 7.4), and the solution was centrifuged again at 12,000 × g for 15 min at 4 °C to remove insoluble material. The clarified supernatant was loaded onto a 5 ml HisTrap™ Crude affinity column (GE Healthcare) that had been pre-equilibrated with buffer A. The column was subsequently washed with buffer A containing 75 mM imidazole to remove non-specifically bound proteins. Recombinant chitinases were eluted using buffer A containing 250 mM imidazole. The expressed proteins were quantified using a BCA protein assay kit (TaKaRa Biotech, China). And their purities were determined by SDS-PAGE and found to be >95% in all cases.
(§2) Chitinase activities for SmChiA, HsChit1 and OfChi-h were determined using 4-methylumbelliferyl-N, N′-diacetyl-β-D-chitobioside (MU-β-(GlcNAc)2) (purchased from Sigma) as a substrate. The final reaction mixture volume used for inhibitor screening was 100 μL, consisting of 10 nM enzyme, 4 μM MU-β-(GlcNAc)2, 10 μM inhibitor, and 2% DMSO in a 20 mM sodium phosphate buffer (pH 6.0). The reaction in the absence of inhibitor was used as a positive control. After incubation at 30 °C for 20 min, 0.5 M sodium carbonate was added to the reaction mixture, and the fluorescence produced by the released 4-MU was quantified with a Varioskan Flash microplate reader (Thermo Fisher Scientific) using excitation and emission wavelengths of 360 and 450 nm, respectively. Experiments were performed in triplicate unless specified otherwise. For Ki value determination, the inhibitor concentration was varied in the above reaction, and different concentrations of substrate (2–8 μM) were used. The amount of released 4-MU was quantified as above, and the Ki value and the mode of inhibition were determined using the Dixon plot.

SmChiA = molecular target: T3, SmChiA (Serratia marcescens, UniProt P07254); assay: Chitinase inhibition assay and Ki determination (MU-β-(GlcNAc)2 substrate, Dixon plot), SmChiA; assay type: biochemical; conditions: for inhibition at 10 µM: 10 μM inhibitor, 10 nM enzyme, 4 μM MU-β-(GlcNAc)2, pH 6.0, 30 °C, 20 min; for Ki: Dixon plot, three substrate concentrations
T3 construct: made in house; host or cells: Escherichia coli BL21(DE3)
Method: as §1, §2

OfChi-h [2] = molecular target: T2, OfChi-h; conditions: read-out: OfChi-h Ki; cited from earlier work

T2 sequence (Q4AE59 18-553): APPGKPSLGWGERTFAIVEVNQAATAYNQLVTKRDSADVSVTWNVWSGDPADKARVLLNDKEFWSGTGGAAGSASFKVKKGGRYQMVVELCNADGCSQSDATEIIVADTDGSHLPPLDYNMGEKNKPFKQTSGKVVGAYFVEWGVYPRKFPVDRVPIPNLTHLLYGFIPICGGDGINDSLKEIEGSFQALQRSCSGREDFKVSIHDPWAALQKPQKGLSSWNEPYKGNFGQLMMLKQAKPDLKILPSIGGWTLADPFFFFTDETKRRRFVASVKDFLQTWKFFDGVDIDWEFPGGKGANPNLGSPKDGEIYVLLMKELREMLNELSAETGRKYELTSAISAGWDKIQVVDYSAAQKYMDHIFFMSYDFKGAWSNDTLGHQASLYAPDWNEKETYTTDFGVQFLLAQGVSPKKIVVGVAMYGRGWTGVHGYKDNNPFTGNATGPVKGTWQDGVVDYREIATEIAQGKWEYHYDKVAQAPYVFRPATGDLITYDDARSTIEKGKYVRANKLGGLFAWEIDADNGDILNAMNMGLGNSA
T3 sequence (P07254 24-563): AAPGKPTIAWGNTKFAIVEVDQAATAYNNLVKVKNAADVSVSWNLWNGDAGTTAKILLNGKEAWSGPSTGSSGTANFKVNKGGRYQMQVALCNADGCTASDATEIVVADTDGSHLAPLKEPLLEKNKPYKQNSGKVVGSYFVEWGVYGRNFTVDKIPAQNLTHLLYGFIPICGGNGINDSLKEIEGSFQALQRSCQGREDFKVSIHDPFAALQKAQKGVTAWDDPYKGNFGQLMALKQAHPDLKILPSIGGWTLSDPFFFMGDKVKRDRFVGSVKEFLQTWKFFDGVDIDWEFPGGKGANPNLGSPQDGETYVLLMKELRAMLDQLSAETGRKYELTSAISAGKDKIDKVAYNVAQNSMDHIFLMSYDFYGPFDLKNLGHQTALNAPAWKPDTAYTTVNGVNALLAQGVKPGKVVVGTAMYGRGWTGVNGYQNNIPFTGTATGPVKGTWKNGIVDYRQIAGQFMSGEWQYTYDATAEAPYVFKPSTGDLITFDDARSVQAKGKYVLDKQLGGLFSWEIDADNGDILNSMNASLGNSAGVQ
T1 sequence (Q13231 22-466): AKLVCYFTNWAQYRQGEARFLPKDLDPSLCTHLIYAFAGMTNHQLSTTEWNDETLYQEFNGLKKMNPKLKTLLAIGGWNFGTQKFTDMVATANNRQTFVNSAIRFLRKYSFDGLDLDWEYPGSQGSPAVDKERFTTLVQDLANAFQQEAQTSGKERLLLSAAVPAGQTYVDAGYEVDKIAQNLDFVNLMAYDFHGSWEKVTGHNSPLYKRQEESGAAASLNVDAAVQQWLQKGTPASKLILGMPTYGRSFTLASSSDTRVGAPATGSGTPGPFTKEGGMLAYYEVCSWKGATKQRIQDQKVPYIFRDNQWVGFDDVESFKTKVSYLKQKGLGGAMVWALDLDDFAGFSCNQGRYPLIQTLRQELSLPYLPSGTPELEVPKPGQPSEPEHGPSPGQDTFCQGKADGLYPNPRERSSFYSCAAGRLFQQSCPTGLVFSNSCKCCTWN

Row | SMILES | Ki (HsChit1) [µM] | inhibition at 10 µM (OfChi-h [1]) [%] | Improvement in inhibitory activity against OfChi-h (Ki) compared to 5a (OfChi-h [1]; 6a Ki versus 5a Ki) | Ki (OfChi-h [1]) [µM] | inhibition at 10 µM (SmChiA) [%] | Ki (SmChiA) [µM] | Ki (OfChi-h [2]) [µM]
1 | Cc1cccn2c(=O)c3cc4c(=O)n(Cc5cccnc5)cnc4nc3nc12 [6a] | 0.295 | 99.3 ± 0.2 | approximately 15 fold | 0.058 | 98.5 ± 0.2 | 0.126 | –
2 | Cc1cccn2c(=O)c3cc4c(=O)n(C(C)c5cccnc5)cnc4nc3nc12 (stereo not shown) [6b] | – | 96.8 ± 0.1 | – | 0.215 | 88.7 ± 2.2 | – | –
3 | Cc1cccn2c(=O)c3cc4c(=O)n(Cc5ccccc5)cnc4nc3nc12 [6d] | – | 72.5 ± 2.4 | – | 1.42 | 32 ± 1.4 | – | –
4 | Cc1cccn2c(=O)c3cc4c(=O)n(Cc5ccc(Cl)c(F)c5)cnc4nc3nc12 [6i] | – | 42.9 ± 1 | – | 2.89 | 31.7 ± 0.2 | – | –
5 | COc1ccc(Cn2cnc3nc4nc5c(C)cccn5c(=O)c4cc3c2=O)cc1OC [6f] | – | 69.3 ± 4.4 | – | 0.747 | 34.2 ± 2.5 | – | –
6 | COc1cc(Cn2cnc3nc4nc5c(C)cccn5c(=O)c4cc3c2=O)cc(OC)c1OC [6e] | – | 96.2 ± 0.3 | – | 0.065 | 28.2 ± 4.8 | – | –
7 | Cc1cccn2c(=O)c3cc(C(=O)NCc4cccnc4)c(N)nc3nc12 [5a, reference compound] | – | – | – | – | – | 6.19 ± 0.155 | 0.86
8 | COc1ccc(Cn2cnc3nc4nc5c(C)cccn5c(=O)c4cc3c2=O)cc1 [6g] | – | 74 ± 2 | – | 1.03 | 30.3 ± 2.7 | – | –
9 | Cc1cccn2c(=O)c3cc4c(=O)n(CCc5c[nH]c6ccccc56)cnc4nc3nc12 [6j] | – | 49.6 ± 2.2 | – | – | 42.4 ± 4.1 | – | –
10 | Cc1cccn2c(=O)c3cc4c(=O)n(Cc5cnccn5)cnc4nc3nc12 [6c] | – | 95.3 ± 0.5 | – | 0.294 | 91.5 ± 0.8 | – | –
11 | Cc1cccn2c(=O)c3cc4c(=O)n(Cc5ccco5)cnc4nc3nc12 [6k] | – | 86.8 ± 0.8 | – | 1.51 | 47.5 ± 1.2 | – | –
12 | Cc1cccn2c(=O)c3cc4c(=O)n(Cc5cccc(N)c5)cnc4nc3nc12 [6h] | – | 89 ± 1.5 | – | 0.276 | 37.9 ± 0.4 | – | –
13 | C#CCn1cnc2nc3nc4c(C)cccn4c(=O)c3cc2c1=O [6l] | – | 81 ± 0.8 | – | 1.34 | 37.5 ± 2.2 | – | –

From article PMC12239106, “Discovery of conformation constrained tetracyclic compounds as potent chitinase OfChi-h inhibitors with a novel binding mode” (Journal of Enzyme Inhibition and Medicinal Chemistry, 2025)
